Experiment: bioavailability study, serum [1-38]hPTH by radioimmunoassay
Format: in vivo, rhesus monkeys
Details: monkeys, nasal administration
Experimental: Compositions of Examples 1A, 6 and 9 are administered nasally to rhesus monkeys (n=5) at a dose of 100 μg/kg [1-38]hPTH. A reference composition comprising
and buffered to pH 5.5 with Na2 HPO4 /citric acid is administered i.v. at a dose of 10 μg/kg.
Blood is taken after 10, 20, 30, 45, 60, 90, 240 and 360 min after administration and stored deep frozen at -80° C. until analysed. [1-38]hPTH concentrations in serum are analysed using radioimmunoassay techniques providing a limit of detection of 0.2-0.1 ng/ml. In addition urine is collected and stored deep frozen at -80° C. until analysis of cAMP by RIA techniques.

## CC[C@H](C)[C@H](NC(=O)[C@H](CCC(=O)O)NC(=O)[C@H](CO)NC(=O)[C@@H](NC(=O)[C@@H](N)CO)C(C)C)C(=O)N[C@@H](CCC(N)=O)C(=O)N[C@@H](CC(C)C)C(=O)N[C@@H](CCSC)C(=O)N[C@@H](Cc1c[nH]cn1)C(=O)N[C@@H](CC(N)=O)C(=O)N[C@@H](CC(C)C)C(=O)NCC(=O)N[C@@H](CCCCN)C(=O)N[C@@H](Cc1c[nH]cn1)C(=O)N[C@@H](CC(C)C)C(=O)N[C@@H](CC(N)=O)C(=O)N[C@@H](CO)C(=O)N[C@@H](CCSC)C(=O)N[C@@H](CCC(=O)O)C(=O)N[C@@H](CCCNC(=N)N)C(=O)N[C@H](C(=O)N[C@@H](CCC(=O)O)C(=O)N[C@@H](Cc1c[nH]c2ccccc12)C(=O)N[C@@H](CC(C)C)C(=O)N[C@@H](CCCNC(=N)N)C(=O)N[C@@H](CCCCN)C(=O)N[C@@H](CCCCN)C(=O)N[C@@H](CC(C)C)C(=O)N[C@@H](CCC(N)=O)C(=O)N[C@@H](CC(=O)O)C(=O)N[C@H](C(=O)N[C@@H](Cc1c[nH]cn1)C(=O)N[C@@H](CC(N)=O)C(=O)N[C@@H](Cc1ccccc1)C(=O)N[C@H](C(=O)N[C@@H](C)C(=O)N[C@@H](CC(C)C)C(=O)NCC(=O)O)C(C)C)C(C)C)C(C)C [[1-38]hPTH, hPTH[1-38]]
  serum levels reached, based on serum concentration and cumulative urinary excretion: therapeutic [1-38]hPTH serum levels are achieved
